# Experimental data reported in patent publication US12403166B2, “Labisia pumila extract composition and its pharmaceutical formulation” (MEDIKA NATURA SDN. BHD., priority 2021, dated 2025).
# Key:
# [1] = system: glutathione peroxidase (GPx); assay: Glutathione peroxidase (GPx) in DIO rats (anti-oxidant); format: in vivo, rat; conditions: 30 mg/kg, P≤0.01
# [2] = system: glutathione S-transferase (GST); conditions: DIO rats, 30 mg/kg, P≤0.05
compound,measurement,setting,value
CCCCCCCCCCC[C@@H](C[C@@H]1OC(=O)[C@H]1CCCCCC)OC(=O)[C@H](CC(C)C)NC=O [Orlistat],increase in GPx as compared to DIO control group,[1],40.9%
same,increase in GST as compared to DIO control group,[2],10.4%
